Results on 3 compounds are retold here after US8580918B2, “Peptidic GLP-2 agonists” (Ferring B.V., priority 2009, dated 2013).

A short description of this data set: Pharmacokinetics in rats after intravenous bolus injection (systemic clearance). The format is in vivo. The settings on record: rat, plasma, adult male Sprague-Dawley rats, i.v. bolus, read-out: CL (ml/kg/min) Average. The procedure: Pharmacokinetic (PK) parameters of illustrative agonists of the GLP-2 receptor were determined in adult male Sprague-Dawley rats post intravenous bolus injection of compounds at doses of 0.1-1.0 mg/kg. Three or four doubly cannulated animals per compound were dosed via jugular vein, blood samples were collected at several intervals via carotid artery, and plasma samples were prepared from whole blood using K2EDTA as anticoagulant. Subsequent bioanalysis of samples included compound extraction and plasma concentration determination using standard LC/MS/MS methods. Analyte concentration was calculated from internal standard normalized peak area and calibration curves.
For calculation of PK parameters the compound concentration-time curves were analyzed with the noncompartmental data analysis software package PK Solutions 2.0™ (Summit Research Services, Montrose Colo.). The systemic clearance per kg body weight (CL) was calculated as the dose per kg body weight divided by the AUC extrapolated to infinity based on trapezoid calculation (AUC∞). Values reported are the arithmetic mean and standard deviation from the number of animals used for each compound as indicated on Table 3.

[1] abbreviates: 0.2 mg FB/kg, dose 0.20 mg FB/kg.

Like-named read-outs stand apart in the source and are kept apart here. Where a SMILES comes first, the peptide text is derived from it. [ ]: non-standard residue; d: D form. d2Thi = N[C@H](Cc1cccs1)C(=O)O; Nle = CCCC[C@H](N)C(=O)O

For `CCCC[C@H](NC(=O)[C@H](CCC(=O)O)NC(=O)[C@H](CC(=O)O)NC(=O)[C@H](CO)NC(=O)[C@H](Cc1ccccc1)NC(=O)[C@H](CO)NC(=O)CNC(=O)[C@H](CC(=O)O)NC(=O)CNC(=O)[C@@H](N)Cc1c[nH]cn1)C(=O)N[C@H](C(=O)N[C@H](C(=O)N[C@H](C(=O)N[C@@H](CC(C)C)C(=O)N[C@@H](CC(=O)O)C(=O)N[C@@H](CC(N)=O)C(=O)N[C@@H](CC(C)C)C(=O)N[C@@H](C)C(=O)N[C@@H](C)C(=O)N[C@@H](CCCNC(=N)N)C(=O)N[C@@H](CC(=O)O)C(=O)N[C@@H](Cc1ccccc1)C(=O)N[C@H](C(=O)N[C@@H](CC(N)=O)C(=O)N[C@@H](Cc1c[nH]c2ccccc12)C(=O)N[C@@H](CC(C)C)C(=O)N[C@H](C(=O)N[C@@H](CCC(N)=O)C(=O)N[C@H](C(=O)N[C@@H](CCCCN)C(N)=O)[C@@H](C)O)[C@@H](C)CC)[C@@H](C)CC)[C@@H](C)CC)[C@@H](C)O)[C@@H](C)CC` [Compound 31, [Gly2,Nle10,Ile11] hGLP-2 (1-30)-NH2] (H-HGDGSFSDE[Nle]ITILDNLAARDFINWLIQTK-NH2), the clearance (dose 0.18 mg FB/kg) amounted to 5.6 mL/kg/min.
As to `CCCC[C@H](NC(=O)[C@H](CCC(=O)O)NC(=O)[C@H](CC(=O)O)NC(=O)[C@H](CO)NC(=O)[C@H](Cc1ccccc1)NC(=O)[C@H](CO)NC(=O)CNC(=O)[C@H](CC(=O)O)NC(=O)CNC(=O)[C@@H](N)Cc1c[nH]cn1)C(=O)N[C@H](Cc1cccs1)C(=O)N[C@H](C(=O)N[C@H](C(=O)N[C@@H](CC(C)C)C(=O)N[C@@H](CC(=O)O)C(=O)N[C@@H](CC(N)=O)C(=O)N[C@@H](CC(C)C)C(=O)N[C@@H](C)C(=O)N[C@@H](C)C(=O)N[C@@H](CCCNC(=N)N)C(=O)N[C@@H](CC(=O)O)C(=O)N[C@@H](Cc1ccccc1)C(=O)N[C@H](C(=O)N[C@@H](CC(N)=O)C(=O)N[C@@H](Cc1c[nH]c2ccccc12)C(=O)N[C@@H](CC(C)C)C(=O)N[C@H](C(=O)N[C@@H](CCC(N)=O)C(=O)N[C@H](C(=O)N[C@@H](CCCCN)C(N)=O)[C@@H](C)O)[C@@H](C)CC)[C@@H](C)CC)[C@@H](C)CC)[C@@H](C)O` [Compound 32, [Gly2,Nle10,D-Thi11] hGLP-2 (1-30)-NH2] (H-HGDGSFSDE[Nle][d2Thi]TILDNLAARDFINWLIQTK-NH2), the clearance under setting [1] worked out at 1.1 mL/kg/min.
Still for that read-out and setting: then `CCCC[C@H](NC(=O)[C@H](CCC(=O)O)NC(=O)[C@H](CC(=O)O)NC(=O)[C@H](CO)NC(=O)[C@H](Cc1ccccc1)NC(=O)[C@H](CO)NC(=O)CNC(=O)[C@H](CC(=O)O)NC(=O)CNC(=O)[C@@H](N)Cc1c[nH]cn1)C(=O)N[C@H](Cc1ccc(O)cc1)C(=O)N[C@H](C(=O)N[C@H](C(=O)N[C@@H](CC(C)C)C(=O)N[C@@H](CC(=O)O)C(=O)N[C@@H](CC(N)=O)C(=O)N[C@@H](CC(C)C)C(=O)N[C@@H](C)C(=O)N[C@@H](C)C(=O)N[C@@H](CCCNC(=N)N)C(=O)N[C@@H](CC(=O)O)C(=O)N[C@@H](Cc1ccccc1)C(=O)N[C@H](C(=O)N[C@@H](CC(N)=O)C(=O)N[C@@H](Cc1c[nH]c2ccccc12)C(=O)N[C@@H](CC(C)C)C(=O)N[C@H](C(=O)N[C@@H](CCC(N)=O)C(=O)N[C@H](C(=O)N[C@@H](CCCCN)C(N)=O)[C@@H](C)O)[C@@H](C)CC)[C@@H](C)CC)[C@@H](C)CC)[C@@H](C)O` [Compound 39, [Gly2,Nle10,D-Tyr11] hGLP-2 (1-30)-NH2] (H-HGDGSFSDE[Nle][dY]TILDNLAARDFINWLIQTK-NH2), with 4.9 mL/kg/min.
